# From US20220395490A1, “TREATMENT OF ARTHRITIS” (Inflazome Limited, priority 2019, published 2022)
# Where two headings read alike, the source gives them in different places.
# Key:
# [1] = tested on: MSU-induced knee inflammation (gout) in male Wistar rats; test: Prophylactic efficacy in rodent model of MSU-induced knee inflammation (gout); format: in vivo; conditions: for effect on pain associated with MSU-induced knee edema (mechanical allodynia, von Frey) / inhibition of the MSU-stimulated knee edema: 10 mg/kg once daily oral
# Experimental: To determine the oral anti-inflammatory and anti-nociceptive efficacy of prophylactic treatment with the compound of formula (I) in a rodent model MSU-induced knee inflammation (gout) in male Wistar rats.
# A. Preparation of MSU crystals: • 1. 4 g uric acid was dissolved in 800 ml 0.03 N NaOH and heated to 60° C. NaOH was added as required to maintain pH 8.9. The solution was stored overnight at 4-8° C. • 2. Crystals were filtered, washed and dried. • 3. Crystals were suspended in sterile saline just prior to use.
# B. Efficacy Study: • 1. […] DAY −1. Baseline readings were taken
# Baseline knee diameters were measured by digital caliper.
# Baseline responses to mechanical allodynia, as measured by von Frey fibres, were recorded. • 3. DAY 0:
# a. The rats were weighed and dosed by oral gavage with vehicle, prednisolone (10 mg/kg) or the compound of formula (I) (1, 3 or 10 mg/kg)
# b. One hour after dosing, rats in Groups 1-5 were anesthetized and injected IA into the left knee with 2 mg MSU in 50 μl saline. • 4. DAY 1:
# a. Rats were weighed and dosed as on DAY 0.
# b. One hour after dosing, mechanical allodynia and knee diameters were measured and recorded. • 5. DAY 2:
# b. One hour after dosing, mechanical allodynia and knee diameters were measured and recorded.
# c. Four hours after final dosing, terminal bleeds were collected.
# [2] = tested on: MSU-induced knee inflammation (gout) in male Wistar rats; format: in vivo; conditions: for left knee diameter on DAY 3: vehicle group 15.0 mm; for response to mechanical allodynia on DAY 3: vehicle group 5.8; for reduction in the MSU-induced edema and pain: daily
# Experimental: To determine the oral anti-inflammatory and anti-nociceptive efficacy of therapeutic treatment with the compound of formula (I) in a rodent model MSU-induced knee inflammation (gout) in male Wistar rats.
# 300 mg MSU crystal were suspended in 7.5 ml PBS (Sigma, Cat. D8662, lot. RNBG0405, exp. April 2019) to prepare a 40 mg/ml suspension. Material was kept in a sonicating water bath to maintain homogeneous suspension between injections. The rats were weighed.
# The rats were anesthetized (SOP 1810), knees were shaved, and injected into the left knee with 50 μl MSU (2 mg) crystals using a 25 G needle fitted to a 1 ml syringe.
# Group 1=PBS (Sigma, Cat. D8662, lot RNBG0405, exp. […]). Dosed at 1 ml/kg, PO.
# Group 3=37 mg of the compound of formula (I) was dissolved in 3.7 ml PBS to prepare a 10 mg/ml solution. Dosed at 1 ml/kg, PO.
# Test materials were made fresh daily. All rats were weighed and dosed by intraperitoneal injection or orally. Mechanical allodynia responses and knee diameters were recorded one hour post dosing.
# On DAY 3, four hours after dosing, the rats were anesthetized and exsanguinated into pre-chilled K2 EDTA vacutainer tubes (Becton Dickinson, Cat. 367844, lot 6253682, exp. Jan. 31, 2018). The blood was processed to plasma, gently mixed and centrifuged at 4° C. 1800g for 10 minutes not later than 20 minutes from blood collection, which was stored in two 90 μl minimum volume and four 20 μl aliquots were prepared in labeled eppendorf tubes, and immediately stored frozen at −80° C. The carcasses were disposed of appropriately.
# [3] = 1 mg/kg (Group 5) once daily oral, starting one hour prior to intra-articular 2 mg MSU
# [4] = starting one hour prior to intra-articular 2 mg MSU
"effect on animal weight ([1]; sodium salt in PBS, once daily oral, 1, 3 or 10 mg/kg)",effect on animal weight ([1]; prednisolone 10 mg/kg once daily oral),Compound,"reduction of knee edema [1, 3]","reduction of pain response (mechanical allodynia) [1, 3]",efficacy of intermediate dose compared with high dose (10 mg/kg) ([1]; 3 mg/kg (Group 4) once daily oral),"effect on pain associated with MSU-induced knee edema (mechanical allodynia, von Frey) [1, 4]","inhibition of the MSU-stimulated knee edema [1, 4]","inhibition of the MSU-stimulated response across doses ([1]; once daily oral 1, 3, 10 mg/kg)","left knee diameter on DAY 3 ([2]; 10 mg/kg PO once daily Day 1-3 after 2 mg MSU, baseline 12.3 mm)","response to mechanical allodynia on DAY 3 ([2]; 10 mg/kg PO once daily Day 1-3 after 2 mg MSU, baseline 14.5)",reduction in the MSU-induced edema and pain ([2]; 10 mg/kg orally),"left knee diameter on DAY 3 ([2]; Anakinra 50 mg/kg IP once daily Day 1-3 after 2 mg MSU, baseline 12.4 mm)","response to mechanical allodynia on DAY 3 ([2]; Anakinra 50 mg/kg IP once daily Day 1-3 after 2 mg MSU, baseline 13.9)",reduction in the MSU-induced edema and pain ([2]; Anakinra 50 mg/kg by peritoneal injection),"effect on animal health ([2]; rat, in vivo, ip)"
no significant effect,–,CC(C)n1ccc(S(=O)(=O)NC(=O)Nc2c3c(cc4c2CCC4)CCC3)n1 [compound of formula (I)],34%,66%,no significant difference,complete blockade,49%,significant dose-dependent inhibition,13.6 mm,12.5 grams of pressure,significant reduction,–,–,–,–
–,no significant effect,"C[C@]12C=CC(=O)C=C1CC[C@@H]1[C@@H]2[C@@H](O)C[C@@]2(C)[C@H]1CC[C@]2(O)C(=O)CO [prednisolone, reference compound]",–,–,–,significant insensitivity to pain,52%,–,–,–,–,–,–,–,–
–,–,Anakinra,–,–,–,–,–,–,–,–,–,14.0 mm,9.0 grams of pressure,significant reduction,no effect
